Test results: ChEMBL document CHEMBL1144093, “Neocrotocembranal from Croton oblongifolius” (1999)
The source made the active and inactive calls. The rule behind the calls is not given here.

How the values were obtained:
[1] = test system: P388; experiment: Cytotoxicity against mouse P388 cells by MTT colorimetric method; type: functional
[2] = test system: Platelet; experiment: Inhibition of thrombin-induced rabbit washed platelets aggregation by turbidimetric method; type: functional, Oryctolagus cuniculus

Row | Structure (SMILES) | Activity [1] | Activity [2] [µg/mL]
1 | C/C1=C\CC/C(C)=C/C=C(/C(C)C)CC/C(C(=O)O)=C/CC1 | inactive | 
2 | C/C1=C\C=C(\C(C)C)CC/C(C=O)=C\CC/C(C)=C/CC1 [NEOCROTOCEMBRANAL] | 6.48 µg/mL | 47.21
3 | C/C1=C\C=C(\C(C)C)CC/C(C(=O)O)=C\CC/C(C)=C/CC1 [NEOCROTOCEMBRANEIC ACID] | 41.47 µg/mL | 
